A word on the log P: it is a log measure of how a compound divides between an organic and an aqueous phase. By pKa is commonly meant the pH at which an ionisable group is half protonated. As a reminder, the Cmax is the peak of the concentration-time curve. In general, Tmax refers to the time at which the peak concentration occurs.

Results on one compound are retold here after PMC11206766, “QbD-Based Development and Evaluation of Pazopanib Hydrochloride Extrudates Prepared by Hot-Melt Extrusion Technique: In Vitro and In Vivo Evaluation” (Pharmaceutics, 2024).

For series [1] the following is noted: cited from earlier work.
Series [2] can be described thus: Oral pharmacokinetic / bioavailability study in rabbits. In kind it is in vivo, New Zealand white rabbits. Conditions: rabbit, equivalent to 200 mg pazopanib. Here is the method: A bioavailability study was carried out to assess the drug absorption and pharmacokinetic parameters of different prepared formulations. A suitable animal was selected, and in vivo studies were performed in accordance with the ethical guidelines for animal care and use committee.
New Zealand white rabbits (Species and strain: […]) (5–6 months older, 2.0 ± 0.2 kg, 34–50 cm without tail) were utilized in this study. Animals were maintained at standard environmental conditions of temperature 24 ± 2 °C, humidity (55 ± 5%), under 12:12 h light (08:00–20:00 h)/dark cycle. Animals had free access to rodent chow and tap water ad libitum. Approval for animal studies was gained by the Institutional Animal Ethics Committee (Protocol no. IAEC; 1888/PO/Re/S/16/ CPCSEA/2022/01), constituted for the purpose of control and supervision of experimental animals and agreed with the globally acknowledged Principles for Laboratory Animal Use and Care as indicated by the National Institutes of Health Guide (NIH Publication No. 85–23, revised 1985). Animals were naive to drug treatments and experimentation, at the beginning of all studies. All tests were conducted at BM College of Pharmaceutical Education and Research (BMCPER), Indore, M.P. between 09:00 and 18:00 h.
Animals (n = 3) were settled into three different groups. First group (control) received Pazopanib drug (control), second group received the marketed pazopanib hydrochloride immediate release tablet (Votrient Tablets, 200 mg), while third group received drug formulations (equivalent to 200 mg of Pazopanib) prepared using HME technique, respectively. Dosage forms were administered orally via gastric intubation. Animals were fasted for 12 h with free access to water prior to drug administration. Rabbits were held in rabbit restrainers during blood sampling. Blood samples were collected in heparinized tubes from ear veins at predetermined time points (0, 0.5, 1, 2, 3, 4, 6, 8, 12, and 24 h) after oral administration. Plasma samples were obtained following centrifugation of blood at 3200× g for 5 min at 2–8 °C and kept frozen at −70 °C until analysis.
Pazopanib plasma concentration was plotted against time to obtain the concentration–time profiles, which were used to determine the peak blood concentration (Cmax) and time to achieve the peak concentration (Tmax). Non-compartmental pharmacokinetic analysis was conducted to calculate the area under the curve from 0 to 24 h [(AUC)0-24). The values of Cmax and Tmax for the test preparation were obtained by actual observations. All data were presented as mean ± standard deviation. In order to determine the area under the curve from 0 to 24 h, a non-compartmental PK study was performed using Win-Nonlin PK/PD software (version 8.1). Comparative blood plasma concentration (µg/mL) at different time points for Pazopanib drug and its formulation are depicted in below Figure 24.

Where [3] appears, read: oral via gastric intubation, fasted, plasma.

As to `Cc1ccc(Nc2nccc(N(C)c3ccc4c(C)n(C)nc4c3)n2)cc1S(N)(=O)=O.Cl` [PZB-Drug/API, Pazopanib Hydrochloride], in series [1], the BCS class entry is on record as “BCS class II”, the “log P” value was 3.55 and the pKa is 2.5. Also, in series [2] (setting [3]), the Cmax turned out to be 44700 ng/mL and the Tmax is listed as 2 h. In addition, the T lag in series [2] (oral) worked out at 0 h. Further, the “AUC Last” value in series [2] (oral, 0 to 24 h, non-compartmental) is 308.675 µg·h/mL. In addition, the “C Last” value in series [2] (oral, last sampling 24 h) was found to be 7.6 µg/mL.
